Patent US8969542B2, “HPV polyepitope constructs and uses thereof” (priority 2007, dated 2015)
Read-outs that look alike come from different tables or passages of the source. Where no end group is shown, it is not given here.

Experiments:
DRB4*0101 (DRw53) [1] = target: T1, DRB4*0101 (DRw53) (Homo sapiens, UniProt P01903+P13762, G164S); settings: read-out: IC50 nM to purified HLA DRB4 *0101; HTL epitopes
DRB1*0401 (DR4w4) [2] = target: T2, DRB1*0401 (DR4w4) (Homo sapiens, UniProt P01903+P01911, A100K/A169T/F76Y/I96L/K127E/L162R/M171V/N62H/P40V/Q125Y/R42H/S133A/S149N/S66Y/V115G/V209L/W38E); settings: read-out: IC50 nM to purified HLA DRB1 *0401; HTL epitopes
DRB1*1101 (DR5) = DRB1*1101 (DR5) (Homo sapiens, UniProt P01903+P01911, A100R/A169T/A87E/I96F/K41T/L162R/M171V/P40S/Q125H/Q178H/Q39Y/Q99D/R42S/S66Y/T262R/V115G/W38E); experiment: biochemical
DRB1*0802 (DR8w2) = DRB1*0802 (DR8w2) (Homo sapiens, UniProt P01903+P01911, A100R/A103L/A169T/F76Y/H45Y/I96F/K41T/L162R/M171V/P40S/Q125H/Q178H/Q39Y/Q99D/R218S/R42G/S66Y/V115G/W38E); experiment: biochemical
DRB1*0405 (DR4w15) = DRB1*0405 (DR4w15) (Homo sapiens, UniProt P01903+P01911, A100R/A169T/D86S/F76Y/I96L/K127E/L162R/M171V/N62H/P40V/Q125Y/R42H/S133A/S149N/S66Y/V115G/V209L/W38E); experiment: biochemical
DRB1*0401 (DR4w4) [3] = target: T2, DRB1*0401 (DR4w4); experiment: biochemical
DRB1*0901 = DRB1*0901 (Homo sapiens, UniProt P01903+P01911, A100R/A103E/D57H/D86V/F55Y/F60I/F76Y/I96F/K127E/L162R/M171V/P40D/Q125H/Q99R/R33Q/R42F/S133A/S66N/T210M/V115G/W38K/Y107V/Y59G/Y89S); experiment: biochemical
DRB1*0404 (DR4w14) = DRB1*0404 (DR4w14) (Homo sapiens, UniProt P01903+P01911, A100R/A169T/F76Y/I96L/K127E/L162R/M171V/N62H/P40V/Q125Y/R42H/S133A/S149N/S66Y/V209L/W38E); experiment: biochemical
DRB1*1302 (DR6w19) = DRB1*1302 (DR6w19) (Homo sapiens, UniProt P01903+P01911, A100E/A169T/K41T/L162R/M171V/P40S/Q125H/Q178H/Q39Y/Q99D/R42S/S66N/T262R/V115G/W38E/Y61H); experiment: biochemical
DRB4*0101 (DRw53) [4] = target: T1, DRB4*0101 (DRw53); experiment: biochemical
DRB1*0101 (DR1) = DRB1*0101 (DR1) (Homo sapiens, UniProt P01903+P01911, A100R/D57E/F55L/F60I/F76Y/I96L/L162R/M171V/P40L/Q125E/R42F/V115G/Y59C); experiment: biochemical
DRB1*1501 (DR2w2beta-1) = DRB1*1501 (DR2w2beta-1) (Homo sapiens, UniProt P01903+P01911); experiment: biochemical
DRB1*0301 (DR3) = DRB1*0301 (DR3) (Homo sapiens, UniProt P01903+P01911, A100K/A102G/A103R/A169T/F55Y/I96L/K41T/L162R/M171V/P40S/Q125H/Q178H/Q39Y/R42S/S66N/T106N/T262R/W38E/Y61H); experiment: biochemical
DRB5*0101 (DR2w2beta-2) = DRB5*0101 (DR2w2beta-2) (Homo sapiens, UniProt P01903+Q30154); experiment: biochemical
DRB1*0701 (DR7) = DRB1*0701 (DR7) (Homo sapiens, UniProt P01903+P01911, A100R/A102G/A103Q/D57E/D86V/E43K/F76Y/K127E/L162R/M171V/P40G/Q125H/Q99D/R33Q/R42Y/R54Q/S133A/S66F/T210M/V115G/Y107V/Y59L/Y89S); experiment: biochemical

T2 sequence (P01903 26-254 partner, other chains not shown): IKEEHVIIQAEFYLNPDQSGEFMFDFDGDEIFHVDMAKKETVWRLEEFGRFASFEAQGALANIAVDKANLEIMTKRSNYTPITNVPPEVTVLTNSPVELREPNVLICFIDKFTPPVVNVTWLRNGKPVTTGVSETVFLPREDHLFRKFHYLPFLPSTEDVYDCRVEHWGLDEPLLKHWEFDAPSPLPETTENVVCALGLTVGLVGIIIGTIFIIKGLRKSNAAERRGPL
Sequence of DRB1*1101 (DR5) (P01903 26-254 partner, other chains not shown): as above
Sequence of DRB1*0405 (DR4w15) (P01903 26-254 partner, other chains not shown): as above
Sequence of DRB1*0301 (DR3) (P01903 26-254, other chains not shown): as the sequence (P01903 26-254 partner, other chains not shown) above
Sequence of DRB1*1302 (DR6w19) (P01903 26-254, other chains not shown): as the sequence (P01903 26-254 partner, other chains not shown) above

LQAIELQLTLETIYN (Human papillomavirus type 16) [SEQ ID 92]
IC50 (DRB4*0101 (DRw53) [1]): 2 nM | IC50 (DRB1*0401 (DR4w4) [2]): 37 nM

WKHMRLECAIYYKAR [compound 91]
IC50 (DRB1*1101 (DR5)): 2400 nM | IC50 (DRB1*0802 (DR8w2)): 90 nM | IC50 (DRB1*0405 (DR4w15)): 557 nM | IC50 (DRB1*0401 (DR4w4) [3]): 245 nM | IC50 (DRB1*0901): 6340 nM | IC50 (DRB1*0404 (DR4w14)): 6860 nM | IC50 (DRB1*1302 (DR6w19)): 248 nM | IC50 (DRB4*0101 (DRw53) [4]): 766 nM | IC50 (DRB1*0101 (DR1)): 701 nM | IC50 (DRB1*1501 (DR2w2beta-1)): 1390 nM | IC50 (DRB1*0301 (DR3)): 437 nM | IC50 (DRB5*0101 (DR2w2beta-2)): 280 nM | IC50 (DRB1*0701 (DR7)): 504 nM
